Assay results: patent US9642821B2, “MiR-182 in the diagnosis and treatment of cancer” (Dana-Farber Cancer Institute, Inc., priority 2010, dated 2017)
“Also recorded” adds a separate entry of the source.

Tests used:
BRCA1 transcript = test: Immunoprecipitation of HA-AGO1/miRNA complex, qRT-PCR of bound transcripts, MDA-MB231; type: cell-based; details: MDA-MB231, HA-AGO1 IP, normalized to 5S rRNA
Experimental: miR-182 cDNA and miR-17 cDNA was cloned from HL60 cDNA in pcDNA3.1-Puro expression vector (Invitrogen, Carlsbad, Calif.) using the following primers: […]
MDA-MB231 cells (0.5×10^6 cells) were co-transfected with 1 μg of HA-AGO1 (pIRES-FLAG/HA vector, Addgene) and 0.5 μg of expression vector for miR-182/miR-17 or miR-scr using Lipofectamine 2000. After 2 days cells were harvested using 400 μl lysis buffer (100 mM KCl, 5 mM MgCl2, 10 mM Hepes, pH 7.0, 0.5% Nonidet P-40) containing freshly added RNase inhibitor, RNaseOUT (Invitrogen, Carlsbad, Calif.) and Protease Inhibitor Cocktail (Roche, Basel, Switzerland). After centrifugation, a 50 μl aliquot of supernatant was taken as the input for subsequent RNA extraction. The remaining supernatant was gently shaken with HA-beads (HA-probe Santa Cruz sc-7392) for 4 h at 4° C. in spin columns (Pierce Spin Columns-Screw Cap). The columns were drained, washed and the retained beads were treated with 5 U DNaseI in NT2 buffer (50 mM Tris, pH7.4, 150 mM NaCl, 1 mM MgCl2, 0.05% Nonidet P-40) for 10 minutes at 37° C., washed with NT2 buffer and then treated with Proteinase K in NT2 buffer plus 1% SDS for 30 minutes at 55° C. […] RNA was reverse transcribed (see RNA isolation) and analyzed with qPCR for enrichment of mRNA of miR-182/miR-17 predicted targets.

U2OS-DR-GFP cells = test: Homologous recombination (HR) DR-GFP reporter assay; type: cell-based; details: U2OS DR-GFP stably expressing miR-182, I-SceI
Experimental: U2OS-DR-GFP cells, with a single, stably integrated copy of the transgenic reporter DR-GFP were seeded (0.35×10^6 cells/well) into the wells of a 6-well tissue culture plate, transfected with a control and an miR-182 expression construct. Cells were selected for 4 weeks with 100 μg/ml of puromycin. mir-182 overexpression was confirmed with qPCR (FIG. 3C). HR assay was done as described (Chowdhury et al., Mol. Cell, 31:33-46 (2008)). Briefly, 2×10^5 cells plated overnight in 24-well plates were transfected with 0.8 μg of I-SceI expression plasmid (pCBA Sce) using Lipofectamine 2000. 2 days later, GFP positive cells were assayed by FACScan flow cytometer.

miR-182: microRNA with sequence 5′ UUUGGCAAUGGUAGAACUCACACU 3′ (SEQ ID NO:1); given as mimic (Ambion) or expression vector (UUUGGCAAUGGUAGAACUCACACU; listed as RNA, chemistry not given here; listed as Homo sapiens)
association of miRNA/AGO1 complex with BRCA1 transcript (BRCA1 transcript): associates selectively; also recorded: significantly enriched
HR-mediated DSB repair efficiency (GFP positive cells) (U2OS-DR-GFP cells): significantly reduced HR-efficiency; also recorded: impedes homologous recombination-mediated repair
